According to ChEMBL document CHEMBL5154815, “A Series of Substituted Bis-Aminotriazines Are Activators of the Natriuretic Peptide Receptor C” (J Med Chem, 2022):

Experiments:
[1] = Stability in Sprague-Dawley rat hepatocytes assessed as clearance per […] at 1 uM after 20 mins by LC-MS/MS analysis; type: ADME, cell-based, Hepatocyte
[2] = molecular target: T1, Atrial natriuretic peptide receptor 3 (Mus musculus, UniProt P70180); assay: Agonist activity at NPRC in wild type mouse mesenteric arteries assessed as vasorelaxation by Organ bath assay; type: tissue-based, Artery
T1 sequence (P70180 whole entry): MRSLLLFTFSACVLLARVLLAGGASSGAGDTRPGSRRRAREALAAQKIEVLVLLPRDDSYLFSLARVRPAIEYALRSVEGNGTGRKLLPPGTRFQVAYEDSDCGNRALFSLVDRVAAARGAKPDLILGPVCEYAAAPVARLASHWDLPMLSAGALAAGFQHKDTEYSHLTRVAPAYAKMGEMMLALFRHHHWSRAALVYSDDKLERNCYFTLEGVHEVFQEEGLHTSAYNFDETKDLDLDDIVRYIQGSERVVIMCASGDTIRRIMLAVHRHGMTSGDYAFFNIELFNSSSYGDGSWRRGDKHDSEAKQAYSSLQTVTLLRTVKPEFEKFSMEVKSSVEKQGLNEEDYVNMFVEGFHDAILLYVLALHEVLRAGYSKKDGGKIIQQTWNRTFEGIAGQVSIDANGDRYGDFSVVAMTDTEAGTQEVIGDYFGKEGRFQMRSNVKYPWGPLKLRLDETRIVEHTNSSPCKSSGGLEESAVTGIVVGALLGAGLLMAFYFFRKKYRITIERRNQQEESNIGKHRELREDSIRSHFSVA

[3] = molecular target: Cytochrome P450 2C9 (Homo sapiens, UniProt P11712); assay: Inhibition of CYP2C9 in human liver microsomes using diclofenac as substrate preincubated for 10 mins followed by NADPH addition and measured after 10 mins by LC/MS/MS analysis
[4] = Stability of compound in pooled human plasma assessed as half life measured upto 120 mins by LC/MS/MS analysis; conditions: 2 h
[5] = Initial plasma concentration in fasted C57BL/6 mouse at 3 mg/kg, iv by LC-MS/MS analysis
[6] = Half life in fasted C57BL/6 mouse at 3 mg/kg, iv by LC-MS/MS analysis; type: ADME, organism-based; conditions: in vivo

Cytochrome P450 2C9, sequence (P11712 whole entry): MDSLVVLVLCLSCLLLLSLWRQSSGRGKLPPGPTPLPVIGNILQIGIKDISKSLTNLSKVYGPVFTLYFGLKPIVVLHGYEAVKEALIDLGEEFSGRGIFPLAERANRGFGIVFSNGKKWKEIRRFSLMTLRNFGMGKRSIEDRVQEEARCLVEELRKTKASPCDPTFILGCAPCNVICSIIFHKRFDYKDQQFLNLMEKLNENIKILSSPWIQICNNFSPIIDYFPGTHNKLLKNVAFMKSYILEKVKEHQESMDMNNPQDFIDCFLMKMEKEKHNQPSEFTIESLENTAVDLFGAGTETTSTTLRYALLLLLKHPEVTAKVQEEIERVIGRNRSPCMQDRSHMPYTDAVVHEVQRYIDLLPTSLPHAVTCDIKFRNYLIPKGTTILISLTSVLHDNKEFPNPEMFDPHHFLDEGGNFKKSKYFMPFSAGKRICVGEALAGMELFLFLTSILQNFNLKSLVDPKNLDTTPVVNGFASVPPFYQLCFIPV

CC(=O)Nc1ccc(Nc2ncnc(NCCC(=O)OC(C)(C)C)n2)cc1
CLH [1]: 11.8 µL/min
EC50 [2]: 1580 nM
IC50 [3]: > 50000 nM
t1/2 [4]: > 120 min
C0 [5]: 2330 ng/mL
half-life [6]: 34 min
